Laboratory results: patent publication US11578095B2, “Compositions and methods for synthesizing 5'-Capped RNAs” (TriLink Biotechnologies, LLC, priority 2015, dated 2023)

What was measured:
T7 RNAP = T7 RNAP (Escherichia phage T7, UniProt P00573); details: transcription initiation; read-out: Kd for the first initiating NTP; cited from earlier work
[1] = excess of ^7mGpppG over pppG from 4:1 to 10:1; cited from earlier work
T7 RNA polymerase [2] = target: T1, T7 RNA polymerase (Escherichia phage T7, UniProt P00573); assay type: biochemical, T7 bacteriophage; details: Primer/NTP Formulation 1: 6 mM primer, 1.5 mM GTP, 7.5 mM each ATP, CTP, UTP; capped peaks/(capped + 5′ OH peak)
T1 construct: purchased New England Biolabs M0251
T1 sequence (P00573 whole entry): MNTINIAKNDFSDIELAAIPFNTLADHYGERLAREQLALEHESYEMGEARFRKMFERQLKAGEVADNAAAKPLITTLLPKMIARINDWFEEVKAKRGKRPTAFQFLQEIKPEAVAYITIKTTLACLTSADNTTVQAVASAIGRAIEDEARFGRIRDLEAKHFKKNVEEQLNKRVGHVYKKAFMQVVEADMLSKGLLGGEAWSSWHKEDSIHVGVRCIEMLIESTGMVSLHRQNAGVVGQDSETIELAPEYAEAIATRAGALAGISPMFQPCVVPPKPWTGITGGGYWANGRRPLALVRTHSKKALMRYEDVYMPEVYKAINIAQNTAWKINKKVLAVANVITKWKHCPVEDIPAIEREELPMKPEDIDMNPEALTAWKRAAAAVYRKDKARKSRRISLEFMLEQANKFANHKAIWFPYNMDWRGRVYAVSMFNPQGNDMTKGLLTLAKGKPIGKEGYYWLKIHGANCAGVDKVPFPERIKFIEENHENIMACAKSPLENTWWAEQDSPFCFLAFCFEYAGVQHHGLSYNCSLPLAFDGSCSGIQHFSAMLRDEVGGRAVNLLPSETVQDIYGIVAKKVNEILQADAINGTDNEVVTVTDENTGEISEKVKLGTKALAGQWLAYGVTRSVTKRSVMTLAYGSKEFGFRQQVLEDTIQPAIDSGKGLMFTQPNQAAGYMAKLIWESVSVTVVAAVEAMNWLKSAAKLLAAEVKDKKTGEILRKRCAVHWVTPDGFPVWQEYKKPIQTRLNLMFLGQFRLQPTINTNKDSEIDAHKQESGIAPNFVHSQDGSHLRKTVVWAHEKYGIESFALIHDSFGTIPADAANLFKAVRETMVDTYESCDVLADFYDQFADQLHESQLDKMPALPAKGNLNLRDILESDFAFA
Protocol: A double stranded DNA transcription template encoding firefly luciferase was generated by polymerase chain reaction. The +1 template nucleotide was 2′-deoxycytidine. Transcription reactions were assembled with 25 ug/mL transcription template, 40 mM Tris-HCl (pH 8.0), 27 mM MgCl2, 2 mM spermidine, 10 mM DTT, 0.002% Triton X-100, 1000 unit/mL murine RNase inhibitor (New England Biolabs catalog #M0314), 2 unit/mL inorganic pyrophosphatase (New England Biolabs catalog #M2403), 4000 units/mL T7 RNA polymerase (New England Biolabs catalog #M0251), 6 mM ARCA (^m7G3′OmepppGG), 1.5 mM GTP, 7.5 mM ATP, 7.5 mM CTP and 7.5 mM UTP. Transcriptions were incubated at 37° C. for 2 hours. Reactions were supplemented with 10 mM Tris-HCl (pH 7.6), 2.5 mM MgCl2, 0.5 mM CaCl2 and 100 units/mL DNase I (New England Biolabs catalog #M0303) and incubated for 1 hour at 37° C. The resulting mRNAs were purified using an RNeasy Maxi kit (Qiagen catalog #75162) according to manufacturer's instructions. mRNAs were eluted in water and dephosphorylated by adjusting the solution to 50 mM Bis-Tris-Propane HCl (pH 6.0), 1 mM MgCl2, 0.1 mM ZnCl2 and 250 units/mg Antarctic phosphatase (New England Biolabs catalog #M0289). The reaction were incubated at 37° C. for 1 hour. The resulting mRNAs were purified using an RNeasy Maxi kit (Qiagen catalog #75162) according to manufacturer's instructions. mRNAs were eluted in water.
A double stranded firefly luciferase DNA transcription template specific for each trimer is generated by polymerase chain reaction. These templates differed in template nucleotides +1 and +2. For a given trimer, template nucleotide +1 was complementary to B1 (the nucleotide destined to become transcript nucleotide +1). Likewise template nucleotide +2 was complementary to […] (the nucleotide destined to become transcript nucleotide +2; see Example 10)). Transcription reactions are assembled with 25 ug/mL transcription template, 40 mM Tris-HCl (pH 8.0), 27 mM MgCl2, 2 mM spermidine, 10 mM DTT, 0.002% Triton X-100, 1000 unit/mL murine RNase inhibitor (New England Biolabs catalog #M0314), 2 unit/mL inorganic pyrophosphatase (New England Biolabs catalog #M2403), 4000 units/mL T7 RNA polymerase (New England Biolabs catalog #M0251) and 6 mM of initiating capped oligonucleotide primer, 1.5 mM GTP and 7.5 mM each of ATP, CTP and UTP. In subsequent examples, this primer/NTP formulation will be referred to as Primer/NTP Formulation 1. It is clear to one skilled in the art that other polymerases such as T7, T3 or SP6 RNA polymerases could be used instead of T7 RNA polymerase to perform the same function by using their respective promoters. Transcription reaction mixtures are incubated at 37° C. for 2 hours. Reactions are supplemented with 10 mM Tris-HCl (pH 7.6), 2.5 mM MgCl2, 0.5 mM CaCl2 and 100 units/mL DNase I (New England Biolabs catalog #M0303) and incubated for 1 hour at 37° C. The resulting mRNAs are purified using an RNeasy Maxi kit (Qiagen catalog #75162) according to manufacturer's instructions. mRNAs are eluted in water and dephosphorylated by adjusting the solution to 50 mM Bis-Tris-Propane HCl (pH 6.0), 1 mM MgCl2, 0.1 mM ZnCl2 and 250 units/mg Antarctic phosphatase (New England Biolabs catalog #M0289). The reaction is incubated at 37° C. for 1 hour. The resulting mRNAs are purified using an RNeasy Maxi kit (Qiagen catalog #75162) according to manufacturer's instructions. mRNAs are eluted in water.
Initiating capped oligonucleotide primer ^7mG3′OmepppA2′OmepG2′OmepG were used in transcription. Transcription were carried out as in Example 11 with the following modifications. A double stranded DNA transcription template specific for tetramer was generated by polymerase chain reaction. The template nucleotide +1 (2′-deoxythymidine) was complementary to Adenosine (the first nucleotide of the primer destined to become a transcript nucleotide +1).

THP-1 cells = assay: Translation of luciferase mRNAs in differentiated THP-1 cells; assay type: cell-based; details: 100 ng mRNA per well
Protocol: In order to assess the expression of luciferase mRNAs generated in Examples 14 and 15, mRNAs were transfected into THP-1 cells (ATCC, Catalog #TIB-202) with six replicates. THP-1 cells were cultured in ATCC formulated RPMI-1640 (ATCC, Catalog #30-2001) supplemented with 10% FBS, sodium pyruvate and penicillin/streptomycin at 37° C. under an atmosphere of 5% CO2. Cells were seeded at 2E+05 cells per well in a 24-well plate format in the presence of the phorbol ester 12-O-Tetradecanoylphorbol-13-acetate (TPA; Cell Signaling Technologies, Catalog #4174) to induce differentiation. Cells were transfected with 100 ng of mRNA per well 72 hours after seeding. For comparison, cells were also transfected with a Cap0 luciferase mRNA generated by initiation with ARCA. At 20 hours post-transfection, cells were harvested and luciferase activity was measured using a ONE-Glo Luciferase Assay System kit (Promega Catalog #E6120) according to the manufacturer's recommendations. Luminescence was measured using a GloMax-Multi+Detection System instrument according to the manufacturer's recommendations. Data were graphed as the mean of six replicates +/−the standard deviation from the mean. Data were analyzed using the Unpaired t-test to generate p values as a measure of significance. […] In FIG. 14B, we also assessed the activity of an mRNA that was made with the “TC” Template and capped with ARCA (Cap 0). […]

T7 RNA polymerase [3] = target: T1, T7 RNA polymerase; assay: Capping assay (LC-MS) of mRNA made with ^m7GpppA2′OmepG on "TC" vs "CC" transcription template; assay type: biochemical, T7 bacteriophage
Protocol: (§1) A double stranded firefly luciferase DNA transcription template was used with 2′-deoxythymidine and 2′-deoxycytidine residues at template positions +1 and +2, respectively. Two transcription reactions were assembled with 25 ug/mL transcription template, 40 mM Tris-HCl (pH 8.0), 27 mM MgCl2, 2 mM spermidine, 10 mM DTT, 0.002% Triton X-100, 1000 unit/mL murine RNase inhibitor (New England Biolabs catalog #M0314), 2 unit/mL inorganic pyrophosphatase (New England Biolabs catalog #M2403), 4000 units/mL T7 RNA polymerase (New England Biolabs catalog #M0251). The two transcriptions differed in the amount of initiating capped oligonucleotide, amount of NTPs and the identity of NTPs. The first transcription was designed to mimic the transcription conditions of Ishikawa et al. (Nucleic Acids Symposium Series No. 53:129 (2009)). This transcription reaction contained 6 mM of ^m7GpppA2′OmepG initiating capped oligonucleotide primer, 0.9 mM GTP and 7.5 mM of ATP, CTP and UTP. In subsequent examples this primer/NTP formulation will be referred to as Primer/NTP Formulation 2. In this formulation, the initiating oligonucleotide primer was in greater than 6 fold excess over GTP. The second transcription used 5 mM of ^m7GpppA2′OmepG initiating capped oligonucleotide primer, 5 mM GTP, ATP, CTP and pseudouridine triphosphate […]. In subsequent examples this primer/NTP formulation will be referred to as Primer/NTP Formulation 3. In Primer/NTP Formulation 3, the GTP concentration was increased in order to produce commercially useful amounts of RNA. It is clear to one skilled in the art that other polymerases such as T7, T3 or SP6 RNA polymerases could be used instead of T7 RNA polymerase to perform the same function by using their respective promoters. Transcription reaction mixtures are incubated at 37° C. for 2 hours. Reactions were supplemented with 10 mM Tris-HCl (pH 7.6), 2.5 mM MgCl2, 0.5 mM CaCl2 and 100 units/mL DNase I (New England Biolabs catalog #M0303) and incubated for 1 hour at 37° C. The resulting mRNAs were purified using an RNeasy Maxi kit (Qiagen catalog #75162) according to manufacturer's instructions. mRNAs were eluted in water and dephosphorylated by adjusting the solution to 50 mM Bis-Tris-Propane HCl (pH 6.0), 1 mM MgCl2, 0.1 mM ZnCl2 and 250 units/mg Antarctic phosphatase (New England Biolabs catalog #M0289). The reaction was incubated at 37° C. for 1 hour for Primer/NTP Formulation 2 and 3 hours for Primer/NTP Formulation 3 hour. The resulting mRNAs were purified using an RNeasy Maxi kit (Qiagen catalog #75162) according to manufacturer's instructions. mRNAs were eluted in water. The purified transcription yields with Primer/NTP Formulation 2 and 3 were 0.7 milligram/milliliter transcription reaction (mg/mL) and 3.9 mg/mL transcription reaction, respectively.
A double stranded firefly luciferase DNA transcription template was used in which the +1 and +2 template nucleotides were cytidines and thus not completely complementary to the ^m7GpppA2′OmepG initiating capped oligonucleotide primer. Two transcription reactions were assembled with 25 ug/mL transcription template, 40 mM Tris-HCl (pH 8.0), 27 mM MgCl2, 2 mM spermidine, 10 mM DTT, 0.002% Triton X-100, 1000 unit/mL murine RNase inhibitor (New England Biolabs catalog #M0314), 2 unit/mL inorganic pyrophosphatase (New England Biolabs catalog #M2403), 4000 units/mL T7 RNA polymerase (New England Biolabs catalog #M0251). The two transcriptions differed in the amount of initiating capped oligonucleotide and NTPs. The first transcription was designed to mimic the transcription conditions of Ishikawa et al. (Nucleic Acids Symposium Series No. 53: 129 (2009)). This transcription reaction contained Primer/NTP Formulation 2. The second transcription used Primer/NTP Formulation 3. It is clear to one skilled in the art that other polymerases such as T7, T3 or SP6 RNA polymerases could be used instead of T7 RNA polymerase to perform the same function by using their respective promoters. […]

T7 RNA polymerase [4] = target: T1, T7 RNA polymerase; assay: In vitro transcription of firefly luciferase template, purified transcription yield; assay type: biochemical, T7 bacteriophage
Protocol: as §1, with “reaction, respectively. […]” for “reaction, respectively.”

T7 RNAP, sequence (P00573 whole entry): as above

Compound: Nc1nc2c(ncn2[C@@H]2O[C@H](COP(=O)(O)OP(=O)(O)OP(=O)(O)O)[C@@H](O)[C@H]2O)c(=O)[nH]1 [GTP, guanosine triphosphate]
- Kd (T7 RNAP): 2 mM

Compound: ^7mG(5′)ppp(5′)G [^7mGpppG]
- 5′-Cap structure mRNA transcripts [1]: 80-90%

Compound: ^m7G3′OmepppG2′OmepG
- observed % capping (capping efficiency) (T7 RNA polymerase [2]): 87%

Compound: ^m7GpppC2′OmepG
- observed % capping (capping efficiency) (T7 RNA polymerase [2]): 98%

Compound: ^m7GpppA2′OmepG
- translation (luciferase activity), "TC" template vs "CC" template (THP-1 cells; 20 hours post-transfection, Primer/NTP Formulations 2 and 3 (FIG. 14A, 14B)): significantly superior
- fidelity of templated transcription initiation (T7 RNA polymerase [3]; template +1/+2 2′-deoxythymidine/2′-deoxycytidine, Formulations 2 and 3 (FIGS. 13A, 13B)): Only minor aberrant initiation products were detected
- capping efficiency (T7 RNA polymerase [3]; template +1/+2 2′-deoxythymidine/2′-deoxycytidine, Primer/NTP Formulation 2 (FIG. 13A)): 99%
- capping efficiency (T7 RNA polymerase [3]; template +1/+2 2′-deoxythymidine/2′-deoxycytidine, Primer/NTP Formulation 3 (FIG. 13B)): 96%
- fidelity of templated transcription initiation (T7 RNA polymerase [3]; template +1/+2 cytidine, Formulations 2 and 3 (FIGS. 13C, 13D)): initiated in two registers
- calculated capping efficiency (Cap 1+A and Cap 1 GtoA) (T7 RNA polymerase [3]; template +1/+2 cytidine, Primer/NTP Formulation 2 (FIG. 13C)): 97%
- calculated capping efficiency (Cap 1+A and Cap 1 GtoA) (T7 RNA polymerase [3]; template +1/+2 cytidine, Primer/NTP Formulation 3 (FIG. 13D)): 77%
- purified transcription yield (T7 RNA polymerase [4]; template +1/+2 2′-deoxythymidine/2′-deoxycytidine, Primer/NTP Formulation 2): 0.7 mg/mL
- purified transcription yield (T7 RNA polymerase [4]; template +1/+2 2′-deoxythymidine/2′-deoxycytidine, Primer/NTP Formulation 3): 3.9 mg/mL
- purified transcription yield (T7 RNA polymerase [4]; template +1/+2 cytidines, Primer/NTP Formulation 2): 0.6 mg/mL
- purified transcription yield (T7 RNA polymerase [4]; template +1/+2 cytidines, Primer/NTP Formulation 3): 3.9 mg/mL
- observed % capping (capping efficiency) (T7 RNA polymerase [2]): 99%

Compound: ^7mG(3′-O-Me)pppG [^m7G3′OmepppG, reference compound]
- luciferase activity relative to transcripts made with ^m7GpppA2′OmepG on "TC" template (THP-1 cells; "TC" template, 20 hours post-transfection (FIG. 14B)): significantly less activity
- observed % capping (capping efficiency) (T7 RNA polymerase [2]): 79%

Compound: ^m7G3′OmepppA2′OmepG
- observed % capping (capping efficiency) (T7 RNA polymerase [2]): 99%

Compound: ^m7GpppG2′OmepG
- observed % capping (capping efficiency) (T7 RNA polymerase [2]): 89%

Compound: ^m7G3′OmepppC2′OmepG
- observed % capping (capping efficiency) (T7 RNA polymerase [2]): 97%

Compound: ^m7GpppA2′OmepG2′OmepG
- observed % capping (capping efficiency) (T7 RNA polymerase [2]): 50%
